Measured values as given in patent US10111900B2, “β-glucan methods and compositions that affect the tumor microenvironment” (Biothera, Inc., priority 2014, dated 2018).
Entries after “also recorded” stand apart in the source; their conditions may differ.

Tests used:
Assay type in all cases: cell-based, human
CD4 T cells [1] = test: Mac-CD4 T co-culture, surface marker modulation on T cells; details: T cells co-cultured with β-glucan-treated vs vehicle-treated M2 macrophages
Method: (§1) For evaluation of Mac-CD4 T cell surface marker modulation, M2 macrophages were co-cultured with T cells as described above and cells were harvested on day 8, day 9 and day 10 to perform surface receptor staining on both M2 macrophages and T cells.
(§2) Changes in surface marker expression on both macrophages and CD3 & CD28-stimulated T cells were also measured. Vehicle- and β-glucan-treated M2 macrophages and CD T cells from the co-cultures were evaluated by flow cytometry for the modulation of co-stimulatory or co-inhibitory molecules. FIG. 8C and Table 9 are representative results from 2 different experiments.

IFN-γ = IFN-γ in supernatants of macrophage and CD4 T cell co-cultures (ELISA)
Method: CD14^+ monocytes from human whole blood were enriched using Ficoll gradient and magnetic bead separation. Enriched monocytes (5×10^5 cells per mL) were then cultured in either M1-polarizing (XVivo 10 media (Lonza Group) supplemented with 5% autologous serum and 100 ng/mL recombinant human granulocyte macrophage colony-stimulating factor (rhGM-CSF) (R&D Systems) or M2-polarizing (XVivo 10 media supplemented with 10% autologous serum and 50 ng/mL recombinant human macrophage colony-stimulating factor (rhM-CSF) (R&D Systems) conditions for 6 days. In experiments performed to evaluate the effect of β-glucan, whole blood was first incubated with vehicle (sodium citrate buffer) or 25 μg/mL soluble β-glucan for 2 hours at 37° C. and then the monocytes were isolated and differentiated. Morphology was checked before macrophages were harvested for phenotypic analysis. Culture medium of the day 6 macrophage culture (MCM) was collected, spun down to remove contaminated cell pellet and then frozen down for subsequent cytokine analysis by ELISA or used to setup a co-culture with CD3 & CD28-stimulated CD4 T cells (MCM-CD4 T) for evaluation of either surface markers or CD4 T cell proliferation. The macrophages were used to setup a co-culture with CD3 & CD28- or CD3 only-stimulated CD4 T cells (Mac-CD4 T) on day 6 for evaluation of either surface marker modulation or effect on CD4 T cell proliferation. For Mac-CD4 T cell proliferation study, M1 or M2 macrophages were cultured with CD3 & CD28- or CD3 only-stimulated, CFSE-labeled, autologous CD4 T cells at a 1:10 ratio. T cell proliferation was measured at the end of the experiment (day 9-day 11) by flow cytometry, and results are graphically shown as CFSE-dilution peaks. The assessment of CD3-only stimulated T cells was always done on day 11. Quantitative results were reported as the Division Index (the average number of cell divisions a population underwent) calculated for each of the triplicate wells in each of the culture conditions. Culture supernatants of Mac-CD4 T cell co-cultures were collected for subsequent cytokine analysis.
The culture supernatants from the CFSE dilution T-cell proliferation assay (FIG. 2B) were also measured for IFN-gamma levels by ELISA. […] Thus, β-glucan affects M2 to M1 repolarization and drives anti-tumorigenic Th1 polarization.
M2 macrophages from 4 high binders and 4 low binders were prepared and evaluated for their ability to modulate CD4 T cell proliferation. The supernatants from the various CD4 T cell proliferation conditions were measured for IFN-γ by ELISA. Results shown in FIG. 10 are representative from 4 different experiments. Fold change over the IFN-γ levels produced in the co-cultures of vehicle-treated M2 macrophages and CD4 T cells are plotted for each of the 4 donors.

M2 macrophages = test: Mac-CD4 T co-culture, surface marker modulation on macrophages; details: relative to vehicle-treated M2 macrophages
Method: as §1, §2

CD4 T cells [2] = test: Mac-CD4 T cell proliferation assay (CFSE dilution)
Tregs = test: Treg suppression assay
Method: Since these PBMC cultures contain Tregs, the suppressive ability of Tregs seem to be altered in the presence of soluble β-glucan and studies were carried out to determine if β-glucan affected Treg suppression. Plasma from β-glucan-treated or vehicle-treated whole blood (described above) was added to 25,000 isolated CFSE-labeled autologous CD4 T cells (CD4^+CD25^−) along with increasing numbers of isolated autologous Tregs (CD4^+CD25^+) resulting in wells with increasing ratios. Cells were then stimulated with 50,000 T cell activating CD3/28 beads for 3 days. Proliferation was subsequently measured by CFSE dilution and quantified by Division Index, which was used to calculate the % suppression of Tregs in the co-culture. % suppression=100-(Division Index of Treg well/Division Index of 1:0 well)[…].
The Treg suppression assay was conducted as described above, and after 3 days of co-culture, supernatants were analyzed for IFN-gamma production.

IL-4 = IL-4 in supernatants of macrophage and CD4 T cell co-cultures; details: M2 macrophage and CD4 T cell co-cultures
Method: CD14^+ monocytes from human whole blood were enriched using Ficoll gradient and magnetic bead separation. Enriched monocytes (5×10^5 cells per mL) were then cultured in either M1-polarizing (XVivo 10 media (Lonza Group) supplemented with 5% autologous serum and 100 ng/mL recombinant human granulocyte macrophage colony-stimulating factor (rhGM-CSF) (R&D Systems) or M2-polarizing (XVivo 10 media supplemented with 10% autologous serum and 50 ng/mL recombinant human macrophage colony-stimulating factor (rhM-CSF) (R&D Systems) conditions for 6 days. In experiments performed to evaluate the effect of β-glucan, whole blood was first incubated with vehicle (sodium citrate buffer) or 25 μg/mL soluble β-glucan for 2 hours at 37° C. and then the monocytes were isolated and differentiated. Morphology was checked before macrophages were harvested for phenotypic analysis. […] T cell proliferation was measured at the end of the experiment (day 9-day 11) by flow cytometry, and results are graphically shown as CFSE-dilution peaks. […] Quantitative results were reported as the Division Index (the average number of cell divisions a population underwent) calculated for each of the triplicate wells in each of the culture conditions. […]
Modulation of IFN-γ and IL-4 production of vehicle- and β-glucan-treated M2 macrophages was then evaluated. […]

Monocytes = test: Binding of β-glucan to monocytes in whole blood (serum cross-over); details: low binder's whole blood with high binder's serum (higher ABA)
Method: To test this, M2 macrophages were prepared as described above with a few modifications. The whole blood of a low binder was spun down to remove the plasma and then the cells were reconstituted with serum obtained from a high binder. The reconstituted blood was treated with vehicle or β-glucan (25 μg/mL) for 2 hours at 37° C. The monocytes were evaluated for binding by using anti-β-glucan specific monoclonal antibody and subsequent flow cytometry.

M1 macrophages = test: Flow cytometry of M1/M2 markers on M1 macrophages derived from β-glucan-treated whole blood
Method: CD14^+ monocytes from human whole blood were enriched using Ficoll gradient and magnetic bead separation. […] T cell proliferation was measured at the end of the experiment (day 9-day 11) by flow cytometry, and results are graphically shown as CFSE-dilution peaks. […] Quantitative results were reported as the Division Index (the average number of cell divisions a population underwent) calculated for each of the triplicate wells in each of the culture conditions. […]
Expression of a panel of markers was evaluated by flow cytometry for vehicle- and β-glucan-treated, high binder-derived M1 and M2 macrophages (CD163 was evaluated twice).
CD163 and CD86 were evaluated by flow cytometry for vehicle- and β-glucan-treated, low binder-derived M1 and M2 macrophages.

For “β(1,6)-[poly-(1,3)-D-glucopyranosyl]-poly-β(1,3)-D-glucopyranose [β-glucan]”, the “Change in MFI on T cells: 4-1BB” value (CD4 T cells [1]) was “No change”, the “Change in MFI on T cells: CD28” value (CD4 T cells [1]) was “No change” and the “Change in MFI on T cells: CD40L” value (CD4 T cells [1]) was “No change”. The “Change in MFI on T cells: CTLA-4” value (CD4 T cells [1]) was “No change”, the “Change in MFI on T cells: PD1 (CD279)” value (CD4 T cells [1]; day 9) was “Increased expression; also recorded: Increase” and the “production of IFN-γ” value (IFN-γ; M2 in TCM / M2a in IL-4 co-cultured with CD4 T cells) was “significantly increased production”. For the same substance, the “production of IFN-γ” value (IFN-γ; M2 macrophage and CD4 T cell co-cultures, high binders) was “significantly increased production”, the “production of IFN-γ” value (IFN-γ; M2 macrophages and CD4 T cells, cell-to-cell contact study) was “significantly increased production” and the “production of IFN-γ” value (IFN-γ; low binder crossed-over with high binder's serum) was “significantly increased production”. The IFN-gamma production (IFN-γ; supernatants of M2 macrophage and CD4 T cell co-culture) was “concomitant increase”, the “Change in MFI on Macrophages: 4-1BBL” value (M2 macrophages) was “No change” and the “Change in MFI on Macrophages: CD40” value (M2 macrophages) was “No change”. For the same substance, the “Change in MFI on Macrophages: CD80” value (M2 macrophages) was “No change”, the “Change in MFI on Macrophages: CD172” value (M2 macrophages) was “No change” and the “Change in MFI on Macrophages: CD209” value (M2 macrophages) was “No change”. The “Change in MFI on Macrophages: OX40” value (M2 macrophages) was “No change”, the “Change in MFI on Macrophages: HLA-DR” value (M2 macrophages; co-culture with CD3 & CD28-stimulated T cells) was “No change” and the “Change in MFI on Macrophages: CD86” value (M2 macrophages; day 8) was “relative increase”. For the same substance, the “Change in MFI on Macrophages: PD-L1 (CD274)” value (M2 macrophages; day 9) was “relative increase”, the “CD4 T cell proliferation” value (CD4 T cells [2]; M1 macrophages, high binders or low binders, vs vehicle) was “no differences” and the “CD4 T cell proliferation” value (CD4 T cells [2]; M2 macrophages cultured in TCM and M2a macrophages cultured in IL-4, vs vehicle) was “maintained the ability to enhance”. For the same substance, the “CD4 T cell proliferation” value (CD4 T cells [2]; M2 macrophages, absence of exogenous CD28 antibody (CD3 only)) was “significantly higher ability to enhance”, the “CD4 T cell proliferation” value (CD4 T cells [2]; M2 macrophages, high binders, CD3 & CD28-stimulated, vs vehicle) was “significantly higher ability to enhance” and the “CD4 T cell proliferation” value (CD4 T cells [2]; M2 macrophages, low binders, vs vehicle) was “neither enhanced CD4 T cell proliferation; also recorded: no enhanced proliferation”. For the same substance, the “CD4 T cell proliferation” value (CD4 T cells [2]; co-culture with β-glucan-treated M2 macrophages, CD3 and CD28-stimulated) was “enhance CD4 T cell proliferation”, the IFN-gamma production (Tregs; Treg suppression assay, 3 days, 8:1 T cell to Treg ratio) was “enhanced IFN-gamma production” and the “suppressive capacity of Tregs” value (Tregs; plasma from β-glucan-treated vs vehicle-treated whole blood) was “significant decreases”. For the same substance, the “production of IL-4” value (IL-4) was “no change”, the “binding of β-glucan to monocytes” value (Monocytes) was “significantly higher binding” and the “CD163 (2) median MFI” value (M1 macrophages; M1 macrophages, high binder) was 230. For the same substance, the “M1 macrophage phenotype (M1/M2-specific markers)” value (M1 macrophages; β-glucan pretreatment vs vehicle) was “did not affect”.
